Counter-ions that a name gives are not always drawn. A value given as a limit tells only on which side of the number the result lay.

For the first experiment, the target named is T1, human TGR5 (Homo sapiens, UniProt Q8TDU6).
T1 construct: expressed in transfected cells; host or cells: HEK-293 cells, stably transfected (pcDNA 3.1, Fugene6, geneticin selection)
T1 sequence (Q8TDU6 1-330): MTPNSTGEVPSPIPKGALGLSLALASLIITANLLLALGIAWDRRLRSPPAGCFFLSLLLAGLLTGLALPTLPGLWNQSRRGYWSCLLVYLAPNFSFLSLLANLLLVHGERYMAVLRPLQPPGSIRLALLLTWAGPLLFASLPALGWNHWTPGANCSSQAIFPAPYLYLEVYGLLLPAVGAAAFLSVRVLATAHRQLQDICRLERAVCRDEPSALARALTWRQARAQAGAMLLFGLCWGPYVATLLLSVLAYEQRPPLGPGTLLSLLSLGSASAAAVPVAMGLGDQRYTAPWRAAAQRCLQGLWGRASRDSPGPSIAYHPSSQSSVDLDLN
As to the kind of experiment: cAMP production assay in HEK293-TGR5 cells. Type of experiment: cell-based. To be noted: HEK293 cells stably expressing human TGR5; 30 minutes stimulation; LANCE cAMP TR-FRET; read-out: cAMP Production in 293-TGR5 Cells EC50. In general terms: Cyclic AMP is a second messenger, typically raised through Gs and lowered through Gi signalling.
On to `COc1ccc2cc(CNC(=O)COc3cccc4ncccc34)c(-c3ccsc3)nc2c1` [Example 119, N-((7-Methoxy-2-(thiophen-3-yl)quinolin-3-yl)methyl)-2-(quinolin-5-yloxy)acetamide], for which the EC50 is less than 10 µM.
Same read-out and setting: to `Cc1c(CNCCc2ccc(Br)cc2)c(-c2ccsc2)nc2cc(O)ccc12` [Example 120, 3-((4-Bromophenethylamino)methyl)-4-methyl-2-(thiophen-3-yl)quinolin-7-ol] belongs greater than 10 µM.
Still for that read-out and setting: the figure for `COc1ccc2cc(CNCCOc3cccc4ncccc34)c(-c3ccsc3)nc2c1` [Example 121, N-((7-Methoxy-2-(thiophen-3-yl)quinolin-3-yl)methyl)-2-(quinolin-5-yloxy)ethanamine] is less than 10 µM.
The same measure, in the same setting: the figure for `COc1cc2nc(-c3ccsc3)c(CNCc3ccc(C(F)(F)F)cc3)cc2cc1O` [Example 122, 7-Methoxy-2-(thiophen-3-yl)-3-((4-(trifluoromethyl)benzylamino)methyl)quinolin-6-ol] is greater than 10 µM; for `COc1cc2cc(CNCCc3ccc(Br)cc3)c(-c3ccsc3)nc2cc1Cl` [Example 123, 2-(4-Bromophenyl)-N-((7-chloro-6-methoxy-2-(thiophen-3-yl)quinolin-3-yl)methyl)ethanamine] it is greater than 10 µM; for `Oc1cc2cc(CNCCc3ccc(Br)cc3)c(-c3ccsc3)nc2cc1Cl` [Example 124, 3-((4-Bromophenethylamino)methyl)-7-chloro-2-(thiophen-3-yl)quinolin-6-ol] it is greater than 10 µM.
Consider `COc1cc2cc(CNCCc3ccc(Br)cc3)c(-c3ccsc3)nc2cc1F` [Example 125, 2-(4-Bromophenyl)-N-((7-fluoro-6-methoxy-2-(thiophen-3-yl)quinolin-3-yl)methyl)ethanamine], for which the EC50 was greater than 10 µM.
The same measure, in the same setting: to `Oc1cc2cc(CNCCc3ccc(Br)cc3)c(-c3ccsc3)nc2cc1F` [Example 126, 3-((4-Bromophenethylamino)methyl)-7-fluoro-2-(thiophen-3-yl)quinolin-6-ol] belongs less than 10 µM.
Still for that read-out and setting: to `O=[N+]([O-])c1ccc2cc(CNCCc3ccc(Br)cc3)c(-c3ccsc3)nc2c1` [Example 127, 2-(4-bromophenyl)-N-((7-nitro-2-(thiophen-3-yl)quinolin-3-yl)methyl)ethanamine] belongs greater than 10 µM; to `Nc1ccc2cc(CNCCc3ccc(Br)cc3)c(-c3ccsc3)nc2c1` [Example 128, 3-((4-Bromophenethylamino)methyl)-2-(thiophen-3-yl)quinolin-7-amine], greater than 10 µM.
Same read-out and setting: to `COc1ccc2c(C)c(CNCCc3ccc(Br)cc3)c(-c3ccsc3)nc2c1` [Example 129, 2-(4-Bromophenyl)-N-((7-methoxy-4-methyl-2-(thiophen-3-yl)quinolin-3-yl)methyl)ethanamine] belongs greater than 10 µM.
On to `COc1ccc2cc(CN[C@H](C)c3ccc(Br)cc3)c(-c3ccsc3)nc2c1` [Example 130, (R)-1-(4-Bromophenyl)-N-((7-methoxy-2-(thiophen-3-yl)quinolin-3-yl)methyl)ethanamine], for which the EC50 was less than 10 µM.
For `COc1cc2cc(CNCCc3ccc(Br)cc3)c(-c3ccsc3)nc2cc1C` [Example 131, 2-(4-Bromophenyl)-N-((6-methoxy-7-methyl-2-(thiophen-3-yl)quinolin-3-yl)methyl)ethanamine], the EC50 is less than 10 µM.
The same measure, in the same setting: to `Cc1cc2nc(-c3ccsc3)c(CNCCc3ccc(Br)cc3)cc2cc1O` [Example 132, 3-((4-Bromophenethylamino)methyl)-7-methyl-2-(thiophen-3-yl)quinolin-6-ol] belongs greater than 10 µM; to `COc1ccc2cc(CN[C@@H](C)c3ccc(Br)cc3)c(-c3ccsc3)nc2c1` [Example 133, (S)-1-(4-Bromophenyl)-N-((7-methoxy-2-(thiophen-3-yl)quinolin-3-yl)methyl)ethanamine], less than 10 µM; to `C[C@@H](NCc1cc2ccc(O)cc2nc1-c1ccsc1)c1ccc(Br)cc1` [Example 134, (R)-3-((1-(4-Bromophenyl)ethylamino)methyl)-2-(thiophen-3-yl)quinolin-7-ol], less than 10 µM.
In the case of `C[C@H](NCc1cc2ccc(O)cc2nc1-c1ccsc1)c1ccc(Br)cc1` [Example 135, (S)-3-((1-(4-Bromophenyl)ethylamino)methyl)-2-(thiophen-3-yl)quinolin-7-ol], the EC50 is less than 10 µM.
For the compound `N#Cc1ccc2cc(CNCCc3ccc(Br)cc3)c(-c3ccsc3)nc2c1` [Example 136, 3-((4-Bromophenethylamino)methyl)-2-(thiophen-3-yl)quinoline-7-carbonitrile], the EC50 was less than 10 µM.
Still for that read-out and setting: to `CCOC(=O)c1ccc2cc(CNCCc3ccc(Br)cc3)c(-c3ccsc3)nc2c1` [Example 137, Ethyl 3-((4-bromophenethylamino)methyl)-2-(thiophen-3-yl)quinoline-7-carboxylate] belongs greater than 10 µM.
Still for that read-out and setting: to `NC(=O)c1ccc2cc(CNCCc3ccc(Br)cc3)c(-c3ccsc3)nc2c1` [Example 139, 3-((4-Bromophenethylamino)methyl)-2-(thiophen-3-yl)quinoline-7-carboxamide] belongs less than 10 µM; to `CNC(=O)c1ccc2cc(CNCCc3ccc(Br)cc3)c(-c3ccsc3)nc2c1` [Example 140, 3-((4-Bromophenethylamino)methyl)-N-methyl-2-(thiophen-3-yl)quinoline-7-carboxamide], less than 10 µM.
The same measure, in the same setting: to `OCc1ccc2cc(CNCCc3ccc(Br)cc3)c(-c3ccsc3)nc2c1` [Example 141, (3-((4-Bromophenethylamino)methyl)-2-(thiophen-3-yl)quinolin-7-yl)methanol] belongs less than 10 µM; to `CC(=O)Nc1ccc2cc(CNCCc3ccc(Br)cc3)c(-c3ccsc3)nc2c1` [Example 142, N-(3-((4-bromophenethylamino)methyl)-2-(thiophen-3-yl)quinolin-7-yl)acetamide], greater than 10 µM.
Consider `COc1ccc2cc(CNC(C)Cc3ccc(Br)cc3)c(-c3ccsc3)nc2c1` (stereo not drawn) [Example 145, 1-(4-Bromophenyl)-N-((7-methoxy-2-(thiophen-3-yl)quinolin-3-yl)methyl)propan-2-amine], for which the EC50 was greater than 10 µM.
Same read-out and setting: to `COc1cc2nc(-c3ccsc3)c(CNCCc3ccc(Br)cc3)cc2cc1F` [Example 146, 2-(4-Bromophenyl)-N-((6-fluoro-7-methoxy-2-(thiophen-3-yl)quinolin-3-yl)methyl)-ethanamine] belongs less than 10 µM; to `Oc1cc2nc(-c3ccsc3)c(CNCCc3ccc(Br)cc3)cc2cc1F` [Example 147, 3-((4-Bromophenethylamino)methyl)-6-fluoro-2-(thiophen-3-yl)quinolin-7-ol], greater than 10 µM; to `COc1ccc2cc(CNCCc3ccc(Br)cc3)c(OC)nc2c1` [Example 148, 2-(4-Bromophenyl)-N-((2,7-dimethoxyquinolin-3-yl)methyl)ethanamine], greater than 10 µM.
For `COc1ccc2cc(CNCCc3ccc(Br)cc3)c(O)nc2c1` [Example 149, 3-((4-Bromophenethylamino)methyl)-7-methoxyquinolin-2(1H)-one hydrochloride], the concentration for a half-maximal effect (EC50) was greater than 10 µM.

For another experiment, the system named is mice fed high fat diet (HFD).
Assay: not given
To be noted: mice fed HFD containing 0.5% cholic acid vs HFD alone; cited from earlier work.
As to `C[C@H](CCC(=O)O)[C@H]1CC[C@H]2[C@@H]3[C@H](O)C[C@@H]4C[C@H](O)CC[C@]4(C)[C@H]3C[C@H](O)[C@]12C` [cholic acid], the Food intake entry is reported as “no difference between the two groups” and the Weight gain result is reported as “gained less weight than control mice on HFD alone”.

In general, EC50 refers to the concentration needed to bring the measured effect to its halfway point.

(Values after US20080221161A1, “HETEROCYCLIC MODULATORS OF TGR5 FOR TREATMENT OF DISEASE” (KALYPSYS, INC., priority 2007, published 2008).)
